The source of these data is US6362174B1, “Reduced dipeptide analogues as calcium channel antagonitsts” (Warner-Lambert Company, priority 1998, dated 2002).

Counter-ions that a name gives are not always drawn.

The target in one data set is T1, N-type Ca2+ channel (Homo sapiens, UniProt Q00975).
T1 construct: host or cells: IMR-32 human neuroblastoma cells, differentiated with dibutyryl cAMP and bromodeoxyuridine
Nature of the data set: Measurement of N-type Ca2+ channel blocking potencies in IMR32 cells using the fluorescent Ca2+ indicator Indo-1. The class given is cell-based. The following applies: IMR-32 cells; for IC50: K+ depolarization, 5 μM nitrendipine to block L-type channels. Here is the method: Measurement of N-type Ca^2+ Channel Blocking Potencies of Compounds in IMR32 Cells Using the Fluorescent Ca^2+ Indicator Indo-1
IMR-32 cells are a human tumoral cell line of neural origin. […] Calcium flux into these cells may be induced by stimulation with elevated potassium concentrations. The L-channel component of calcium flux may be blocked by adding 5 μM nitrendipine. The remaining component of calcium entry into the IMR-32 cells is due to calcium flux through N-type calcium channels. Intracellular calcium concentrations are measured using the fluorescent calcium indicator Indo-1. The effect of drug concentration on calcium uptake is studied.
The IMR-32 cell line was obtained from the American Type Culture Collection (Rockville, Md.). Cells were grown in Eagle's Minimum Essential Medium with Earle's salts supplemented with 10% fetal bovine serum, 2 mM L-Gln and antibiotic/antimicotic mixture (Gibco). At approximately 80% confluency, differentiation was induced by the addition of 1 mM dibutyryl cAMP and 2.5 μM bromodeoxyuridine to the medium. After 7 to 13 days of differentiation, cells were detached using 0.5 mM EDTA and loaded with 5 μM Indo-1 acetoxymethyl ester (Molecular Probes, Eugene, Oreg.) at […] for 45 minutes. Loaded cells were washed twice, resuspended (˜10^7 cells/mL) in assay buffer (10 mM HEPES/Tris pH 7.4 in Hank's Balanced Salt Solution without bicarbonate or phenol red containing 0.5% bovine serum albumin) and kept on ice until use. Fluorescence measurements were carried out in a Photon Technology International (PTI, South Brunswick, N.J.) Model RF-F3004 spectrofluorometer with dual emission monochromators using excitation at 350 nm and emission at 400 and 490 nm. The instrument was equipped with a thermostated cuvette holder with stirring capabilities as well as with a computer-controlled pump that allowed for reagent addition during measurement. Instrument control and data collection was done by PTI's OSCAR software running on an IBM compatible computer. Different concentrations of the test compounds (60 μL in dimethyl sulfoxide) were added to 5.94 mL of assay buffer containing approximately 3×10^6 loaded cells, and 5 μM Nitrendipine (in 30 μL EtOH) to block L-type Ca^2+ channels. Samples were incubated for 10 minutes at 30° C. and then aliquoted into three 10×10 mm disposable acrylic cuvettes. Emission signals at 400 and 490 nm were acquired from each cuvette at 30° C. for 50 seconds. At 20 seconds after the start of reading, cells were depolarized by the addition of 160 μL of stimulation solution (1M KCl, 68 mM CaCl2) to the cuvette via the computer-controlled pump. Ratio of dual emission signals (400 nm/490 nm), which is proportional to intracellular Ca^2+ concentration, was plotted against time, and the difference between maximal response after stimulation and basal value (before stimulation) was determined. Values obtained in this way were plotted as a function of drug concentration. IC50 values of test compounds were calculated by fitting a 4-parameter logistic function to the data using the least squares method.

For another data set, the system named is DBA/2 mice. Nature of the data set: Audiogenic seizure model in DBA/2 mice. The class given is in vivo. The following applies: for protection: 30 mg/kg, 15 minutes posttreatment time. The method, then: Audiogenic Seizure Model in DBA/2 Mice
Compounds of the present invention were dissolved in water using 10% (weight/volume) Emulphor (GAF Corp., Wayne, N.J.) surfactant. Substances were administered by intravenous injection into the retro-orbital venous sinus. All testing was performed 15 minutes or 45 minutes after drug injection. All the male mice, 3 to 4 weeks old, were obtained from Jackson Laboratories, Bar Harbour, Me. Immediately before anticonvulsant testing, mice were placed upon a wire mesh, 4 inches square suspended from a steel rod. […] Any mouse falling from the wire mesh was scored as ataxic.
Mice were placed into an enclosed acrylic plastic chamber (21 cm height, approximately 30 cm diameter) with a high-frequency speaker (4 cm diameter) in the center of the top lid. An audio signal generator (Protek model B-810) was used to produce a continuous sinusoidal tone that was swept linearly in frequency between 8 kHz and 16 kHz once each 10 msec. The average sound pressure level (SPL) during stimulation was approximately 100 dB at the floor of the chamber. Mice were placed within the chamber and allowed to acclimatize for 1 minute. DBA/2 mice in the vehicle-treated group responded to the sound stimulus (applied until tonic extension occurred, or for a maximum of 60 seconds) with a characteristic seizure sequence consisting of wild running followed by clonic seizures, and later by tonic extension, and finally by respiratory arrest and death in 80% or more of the mice. In vehicle-treated mice, the entire sequence of seizures to respiratory arrest lasts approximately 15 to 20 seconds.
The incidence of all the seizure phases in the drug-treated and vehicle-treated mice was recorded, and the occurrence of tonic seizures were used for calculating anticonvulsant ED values by probit analysis. Mice were used only once for testing at each time and dose point.

Where [1] appears, read: 10 mg/kg IV, 15 minutes post treatment.
Setting [2] is: 30 mg/kg IV, 15 minutes post treatment.
Setting [3] is: 30 mg/kg IV, 45 minutes post treatment.
Setting [4] is: 10 mg/kg IV, 15 minutes post treatment, dihydrochloride.
Setting [5] is: 10 mg/kg IV, 45 minutes post treatment, dihydrochloride.

T1 sequence (Q00975 whole entry): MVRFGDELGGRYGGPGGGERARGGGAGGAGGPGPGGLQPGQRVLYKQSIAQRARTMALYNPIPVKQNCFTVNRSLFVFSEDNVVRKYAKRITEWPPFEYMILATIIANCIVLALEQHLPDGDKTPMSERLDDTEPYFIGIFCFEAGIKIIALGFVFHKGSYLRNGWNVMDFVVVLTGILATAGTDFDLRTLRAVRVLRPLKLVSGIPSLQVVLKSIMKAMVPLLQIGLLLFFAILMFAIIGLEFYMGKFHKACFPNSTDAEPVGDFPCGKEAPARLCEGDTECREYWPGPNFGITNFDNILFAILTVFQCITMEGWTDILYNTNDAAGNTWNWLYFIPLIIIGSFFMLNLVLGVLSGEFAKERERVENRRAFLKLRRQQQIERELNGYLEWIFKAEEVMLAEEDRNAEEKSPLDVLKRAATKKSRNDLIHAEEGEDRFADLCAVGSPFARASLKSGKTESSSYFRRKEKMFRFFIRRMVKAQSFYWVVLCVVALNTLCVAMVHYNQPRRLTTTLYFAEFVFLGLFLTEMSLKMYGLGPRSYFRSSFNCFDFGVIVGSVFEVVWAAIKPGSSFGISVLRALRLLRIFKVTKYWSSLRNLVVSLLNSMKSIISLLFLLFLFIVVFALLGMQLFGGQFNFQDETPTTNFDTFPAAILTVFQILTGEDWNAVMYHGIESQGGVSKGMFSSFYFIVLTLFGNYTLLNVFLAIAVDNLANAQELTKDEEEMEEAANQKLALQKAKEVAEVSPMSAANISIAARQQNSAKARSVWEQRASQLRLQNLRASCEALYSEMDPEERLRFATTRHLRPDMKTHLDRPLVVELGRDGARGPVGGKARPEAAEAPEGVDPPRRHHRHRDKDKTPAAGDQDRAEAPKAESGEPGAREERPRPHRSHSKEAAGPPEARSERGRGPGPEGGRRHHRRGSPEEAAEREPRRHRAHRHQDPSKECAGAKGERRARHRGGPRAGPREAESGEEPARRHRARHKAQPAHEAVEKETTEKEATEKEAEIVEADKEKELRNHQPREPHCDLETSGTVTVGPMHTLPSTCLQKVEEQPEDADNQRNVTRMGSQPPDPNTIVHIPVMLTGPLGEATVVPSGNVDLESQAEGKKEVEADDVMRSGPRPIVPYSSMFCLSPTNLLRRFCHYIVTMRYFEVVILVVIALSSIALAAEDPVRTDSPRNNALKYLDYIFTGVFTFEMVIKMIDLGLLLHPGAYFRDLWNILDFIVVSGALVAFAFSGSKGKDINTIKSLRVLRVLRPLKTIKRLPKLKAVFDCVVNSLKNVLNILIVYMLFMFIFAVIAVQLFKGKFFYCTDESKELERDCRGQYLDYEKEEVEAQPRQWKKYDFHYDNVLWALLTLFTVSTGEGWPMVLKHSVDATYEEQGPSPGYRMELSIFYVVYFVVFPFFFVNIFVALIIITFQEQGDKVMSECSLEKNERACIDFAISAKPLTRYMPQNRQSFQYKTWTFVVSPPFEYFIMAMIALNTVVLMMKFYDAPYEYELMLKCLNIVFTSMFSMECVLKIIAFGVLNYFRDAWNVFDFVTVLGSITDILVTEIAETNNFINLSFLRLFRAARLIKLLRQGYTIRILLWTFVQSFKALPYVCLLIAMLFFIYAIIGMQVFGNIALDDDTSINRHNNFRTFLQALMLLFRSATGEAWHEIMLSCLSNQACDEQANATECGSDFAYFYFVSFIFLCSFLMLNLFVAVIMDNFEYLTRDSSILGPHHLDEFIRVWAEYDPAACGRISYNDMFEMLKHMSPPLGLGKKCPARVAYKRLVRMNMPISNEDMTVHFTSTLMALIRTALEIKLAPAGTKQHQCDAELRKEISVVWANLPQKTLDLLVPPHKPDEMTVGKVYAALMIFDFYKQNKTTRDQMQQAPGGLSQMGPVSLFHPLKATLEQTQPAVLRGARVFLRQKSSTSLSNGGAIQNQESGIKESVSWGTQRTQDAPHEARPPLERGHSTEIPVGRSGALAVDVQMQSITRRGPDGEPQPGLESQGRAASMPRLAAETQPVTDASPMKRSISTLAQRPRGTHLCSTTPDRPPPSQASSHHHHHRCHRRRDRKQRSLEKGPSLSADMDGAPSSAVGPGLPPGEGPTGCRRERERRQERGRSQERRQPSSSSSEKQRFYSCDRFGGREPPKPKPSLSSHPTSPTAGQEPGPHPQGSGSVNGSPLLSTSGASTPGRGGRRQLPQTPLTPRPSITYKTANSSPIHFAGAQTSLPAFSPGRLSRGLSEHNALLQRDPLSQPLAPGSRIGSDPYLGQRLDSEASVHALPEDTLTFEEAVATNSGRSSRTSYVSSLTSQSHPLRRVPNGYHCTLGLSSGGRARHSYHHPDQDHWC
T1 sequence (Q02641 whole entry partner): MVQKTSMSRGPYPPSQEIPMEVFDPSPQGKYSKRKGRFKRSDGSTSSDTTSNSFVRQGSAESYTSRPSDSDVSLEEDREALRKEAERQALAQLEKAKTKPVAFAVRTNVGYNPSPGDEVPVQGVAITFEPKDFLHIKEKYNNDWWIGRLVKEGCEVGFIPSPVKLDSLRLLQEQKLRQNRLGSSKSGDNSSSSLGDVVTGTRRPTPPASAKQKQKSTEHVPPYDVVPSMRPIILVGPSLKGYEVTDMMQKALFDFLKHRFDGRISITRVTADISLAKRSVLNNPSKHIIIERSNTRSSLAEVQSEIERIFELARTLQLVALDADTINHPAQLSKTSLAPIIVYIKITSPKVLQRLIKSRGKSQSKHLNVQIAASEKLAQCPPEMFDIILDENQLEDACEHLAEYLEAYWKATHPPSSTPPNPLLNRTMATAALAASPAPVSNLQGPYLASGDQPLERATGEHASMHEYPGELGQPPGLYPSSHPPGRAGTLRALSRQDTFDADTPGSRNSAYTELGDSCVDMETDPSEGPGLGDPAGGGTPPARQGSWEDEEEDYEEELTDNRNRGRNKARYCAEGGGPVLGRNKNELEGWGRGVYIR
T1 sequence (P54289 25-956 partner limits assumed): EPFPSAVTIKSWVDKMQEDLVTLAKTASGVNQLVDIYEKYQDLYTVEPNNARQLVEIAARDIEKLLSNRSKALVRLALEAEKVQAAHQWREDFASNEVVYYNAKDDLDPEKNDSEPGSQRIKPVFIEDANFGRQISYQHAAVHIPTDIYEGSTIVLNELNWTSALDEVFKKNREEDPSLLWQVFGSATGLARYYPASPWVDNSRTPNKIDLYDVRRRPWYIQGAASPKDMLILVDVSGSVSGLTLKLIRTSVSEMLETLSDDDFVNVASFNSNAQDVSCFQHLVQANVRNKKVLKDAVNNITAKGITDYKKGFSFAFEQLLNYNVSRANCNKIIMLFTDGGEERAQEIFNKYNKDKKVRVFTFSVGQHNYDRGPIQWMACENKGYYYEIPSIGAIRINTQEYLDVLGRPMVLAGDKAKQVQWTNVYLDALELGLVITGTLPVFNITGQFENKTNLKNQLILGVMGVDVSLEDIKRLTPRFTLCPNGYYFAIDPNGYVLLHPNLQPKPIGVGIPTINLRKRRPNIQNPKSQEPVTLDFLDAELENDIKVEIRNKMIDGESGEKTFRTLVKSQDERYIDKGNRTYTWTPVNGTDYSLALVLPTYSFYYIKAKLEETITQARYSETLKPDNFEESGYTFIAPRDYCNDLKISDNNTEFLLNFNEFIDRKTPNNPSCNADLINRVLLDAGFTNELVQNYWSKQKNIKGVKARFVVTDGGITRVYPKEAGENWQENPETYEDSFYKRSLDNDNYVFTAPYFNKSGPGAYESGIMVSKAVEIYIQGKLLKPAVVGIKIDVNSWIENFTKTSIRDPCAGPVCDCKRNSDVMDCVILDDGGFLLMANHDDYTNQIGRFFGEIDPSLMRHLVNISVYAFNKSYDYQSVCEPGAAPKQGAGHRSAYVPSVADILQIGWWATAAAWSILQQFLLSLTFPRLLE
T1 sequence (P54289 957-1103 partner limits assumed): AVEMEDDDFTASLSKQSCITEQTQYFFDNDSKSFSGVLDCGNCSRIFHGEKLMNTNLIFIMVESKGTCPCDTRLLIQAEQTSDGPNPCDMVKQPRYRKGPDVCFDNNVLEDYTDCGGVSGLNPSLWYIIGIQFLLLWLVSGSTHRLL

As for `CC(C)C[C@H](NC(=O)N1CCCCCC1)C(=O)N[C@H](COC(C)(C)C)Cc1ccc(OCc2ccccc2)cc1` (relative stereo) [Example 1, [S-(R*,R*)]-Azepane-1-carboxylic acid {1-[2-(4-benzyloxy-phenyl)-1-tert-butoxymethyl-ethylcarbamoyl]-3-methyl-butyl}-amide], the IC50 (as a rule, the concentration that gives 50% inhibition) against N-type Ca2+ channel came out at 210 nM. For the same compound, the results for the “Number of Mice Protected from Tonic Convulsions / number of mice tested” value in the data set on DBA/2 mice (setting [1]), in the data set on DBA/2 mice (setting [2]) and with DBA/2 mice (setting [3]) were 1/5, 4/5 and 2/5, respectively. This compound displayed a protection in the data set with DBA/2 mice of 80%.
`CC(C)C[C@@H](CN[C@@H](Cc1ccc(OCc2ccccc2)cc1)C(=O)NC(C)(C)C)NC(=O)N1CCCCCC1` (relative stereo) [Example 2, [S-(R*,R*)]Azepane-1-carboxylic acid (1-{[2-(4-benzyloxy-phenyl)-1-tert-butylcarbamoyl-ethylamino]-methyl}-3-methyl-butyl)-amide dihydrochloride salt]: on N-type Ca2+ channel, the IC50 came to 190 nM. Moreover, the “Number of Mice Protected from Tonic Convulsions / number of mice tested” value is recorded as 1/5 in the data set with DBA/2 mice (setting [1]), 5/5 in the data set with DBA/2 mice (setting [2]) and 1/5 in the data set on DBA/2 mice (setting [3]). This compound also returned a protection with DBA/2 mice of 100%.
For `CC(C)C[C@@H](C(=O)N[C@@H](Cc1ccc(OCc2ccccc2)cc1)CN1CCOCC1)N(C)C` (relative stereo) [Example 3, [S-(R*,R*)]-2-Dimethylamino-4-methyl-pentanoic acid [2-(4-benzyloxy-phenyl)-1-morpholin-4-ylmethyl-ethyl]-amide], the melting point (in general, the temperature, or range, at which the solid turns liquid) fell in the range of 113 to 114 °C. Besides, at N-type Ca2+ channel (1 μM compound, 5 μM nitrendipine), the “IMR32 % @ 1 μM” value is recorded as 6% @ 1 μM. Moreover, the “IMR32 % @ 10 μM” value at N-type Ca2+ channel (10 μM compound, 5 μM nitrendipine) was found to be 48% @ 10 μM.
Take `CC(C)C[C@H](NC(=O)N1CCCCCC1)C(=O)N[C@@H](Cc1ccc(OCc2ccccc2)cc1)CN1CCOCC1` (relative stereo) [Example 4, [S-(R*,R*)]-Azepane-1-carboxylic acid {1-[2-(4-benzyloxy-phenyl) -1-morpholin-4-ylmethyl-ethylcarbamoyl]-3-methyl-butyl}-amide]: the IC50 against N-type Ca2+ channel came to 1200 nM.
Turning to `CC(C)C[C@H](NC(=O)N1CCCCCC1)C(=O)N[C@H](CNC(C)(C)C)Cc1ccc(OCc2ccccc2)cc1` (relative stereo) [Example 5, [S-(R*,R*)]Azepane-1-carboxylic acid {1-[2-(4-benzyloxy-phenyl)-1-(tert-butylamino-methyl)-ethylcarbamoyl]-3-methyl-butyl}-amide trifloroacetate salt], on N-type Ca2+ channel, half-maximal inhibition (IC50) required 1100 nM.
For `CC(C)CC(N)CN[C@@H](Cc1ccc(OCc2ccccc2)cc1)C(=O)NC(C)(C)C` (single isomer, unassigned) [Example 7, dihydrochloride], it took 1200 nM to reach half-maximal inhibition on N-type Ca2+ channel (IC50). Further, the “Number of Mice Protected from Tonic Convulsions / number of mice tested” value with DBA/2 mice (setting [4]) is on record as 2/5; with DBA/2 mice (setting [5]), 1/5.
For `CC(C)CC(N)CN[C@@H](Cc1ccc(OCc2ccccc2)cc1)C(=O)NC(C)(C)C` (single isomer, unassigned) [Example 8, 2-(2-Amino-4-methyl-pentylamino)-3-(4-benzyloxy-phenyl)-N-tert-butyl-propionamide dihydrochloride], in that order: 1000 nM, 0/5 and 0/5.
The compound `CCN(CC)C[C@H](Cc1ccc(OCc2ccccc2)cc1)NC(=O)[C@H](CC(C)C)NC(=O)N1CCCCCC1` [Example 6, (S,S)-Azepane-1-carboxylic acid {1-[2-(4-benzyloxy-phenyl)-1-diethylaminomethyl-ethylcarbamoyl]-3-methyl-butyl}-amide] registered a half-inhibitory concentration (IC50) at N-type Ca2+ channel of 1100 nM.
